# Positions of bridges follow the written chain, without caps; N, C: chain ends. Non-standard residues stand in square brackets, D forms with d. Residues, ends and D or L forms follow the SMILES beside them. Trp(1-Me) = Cn1cc(C[C@H](N)C(=O)O)c2ccccc21
# Tests used:
# hNav1.5 = hNav1.5 (Homo sapiens, UniProt Q14524); assay: cell-based
# hNav1.7 = hNav1.7 (Homo sapiens, UniProt Q15858); assay: cell-based; settings: Nav1.7 Use IC50
# Sequence of hNav1.7 (Q15858 whole entry, looked up): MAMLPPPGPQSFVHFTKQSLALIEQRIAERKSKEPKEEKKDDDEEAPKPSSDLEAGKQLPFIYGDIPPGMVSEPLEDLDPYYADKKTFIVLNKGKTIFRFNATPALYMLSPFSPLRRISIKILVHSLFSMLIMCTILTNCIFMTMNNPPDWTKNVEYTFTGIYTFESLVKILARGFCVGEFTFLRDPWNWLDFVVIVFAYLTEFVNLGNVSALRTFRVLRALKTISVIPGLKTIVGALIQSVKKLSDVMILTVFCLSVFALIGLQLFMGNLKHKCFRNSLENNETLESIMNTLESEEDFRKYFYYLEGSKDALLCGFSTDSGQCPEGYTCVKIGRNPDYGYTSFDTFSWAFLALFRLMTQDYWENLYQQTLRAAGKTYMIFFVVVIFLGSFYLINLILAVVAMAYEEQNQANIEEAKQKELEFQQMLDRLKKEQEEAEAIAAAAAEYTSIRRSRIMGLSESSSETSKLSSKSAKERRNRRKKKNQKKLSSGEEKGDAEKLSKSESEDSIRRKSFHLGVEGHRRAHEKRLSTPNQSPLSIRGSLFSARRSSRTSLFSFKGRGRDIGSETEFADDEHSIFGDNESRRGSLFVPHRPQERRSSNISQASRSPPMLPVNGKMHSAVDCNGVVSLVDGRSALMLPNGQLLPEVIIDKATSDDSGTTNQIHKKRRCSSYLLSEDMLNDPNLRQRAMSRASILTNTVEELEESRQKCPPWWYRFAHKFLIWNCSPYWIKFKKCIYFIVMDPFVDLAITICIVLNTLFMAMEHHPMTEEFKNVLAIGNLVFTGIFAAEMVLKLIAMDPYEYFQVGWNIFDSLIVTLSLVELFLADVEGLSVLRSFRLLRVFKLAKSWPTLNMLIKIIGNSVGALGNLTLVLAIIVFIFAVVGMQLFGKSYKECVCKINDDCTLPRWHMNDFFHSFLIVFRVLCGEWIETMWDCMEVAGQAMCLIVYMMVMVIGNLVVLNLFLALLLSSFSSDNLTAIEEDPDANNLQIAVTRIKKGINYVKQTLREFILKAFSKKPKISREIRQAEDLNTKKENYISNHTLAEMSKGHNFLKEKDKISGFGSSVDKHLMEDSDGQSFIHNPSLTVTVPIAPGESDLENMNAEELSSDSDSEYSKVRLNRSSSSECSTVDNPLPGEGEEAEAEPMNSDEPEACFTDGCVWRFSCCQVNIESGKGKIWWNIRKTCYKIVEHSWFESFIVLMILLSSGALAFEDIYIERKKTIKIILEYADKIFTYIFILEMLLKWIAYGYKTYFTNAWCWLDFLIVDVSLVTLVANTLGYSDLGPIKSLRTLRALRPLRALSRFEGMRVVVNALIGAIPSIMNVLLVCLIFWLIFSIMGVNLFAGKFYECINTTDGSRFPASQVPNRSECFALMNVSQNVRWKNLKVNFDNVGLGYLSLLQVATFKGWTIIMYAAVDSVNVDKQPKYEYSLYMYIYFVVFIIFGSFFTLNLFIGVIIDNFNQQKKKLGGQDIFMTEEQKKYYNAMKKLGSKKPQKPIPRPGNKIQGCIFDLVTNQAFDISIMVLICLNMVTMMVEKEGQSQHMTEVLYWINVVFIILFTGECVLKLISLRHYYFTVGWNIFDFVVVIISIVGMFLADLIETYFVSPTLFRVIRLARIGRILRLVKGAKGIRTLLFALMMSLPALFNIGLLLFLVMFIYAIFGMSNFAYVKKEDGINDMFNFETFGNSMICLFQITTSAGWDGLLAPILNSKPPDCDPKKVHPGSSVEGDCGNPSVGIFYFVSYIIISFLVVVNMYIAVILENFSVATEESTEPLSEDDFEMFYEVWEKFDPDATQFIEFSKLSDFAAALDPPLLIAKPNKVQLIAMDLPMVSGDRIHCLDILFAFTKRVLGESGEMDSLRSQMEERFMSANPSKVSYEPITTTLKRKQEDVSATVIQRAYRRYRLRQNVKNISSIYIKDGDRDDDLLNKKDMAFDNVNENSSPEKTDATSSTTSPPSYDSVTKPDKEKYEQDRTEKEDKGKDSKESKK
# Sequence of hNav1.5 (Q14524 whole entry, looked up): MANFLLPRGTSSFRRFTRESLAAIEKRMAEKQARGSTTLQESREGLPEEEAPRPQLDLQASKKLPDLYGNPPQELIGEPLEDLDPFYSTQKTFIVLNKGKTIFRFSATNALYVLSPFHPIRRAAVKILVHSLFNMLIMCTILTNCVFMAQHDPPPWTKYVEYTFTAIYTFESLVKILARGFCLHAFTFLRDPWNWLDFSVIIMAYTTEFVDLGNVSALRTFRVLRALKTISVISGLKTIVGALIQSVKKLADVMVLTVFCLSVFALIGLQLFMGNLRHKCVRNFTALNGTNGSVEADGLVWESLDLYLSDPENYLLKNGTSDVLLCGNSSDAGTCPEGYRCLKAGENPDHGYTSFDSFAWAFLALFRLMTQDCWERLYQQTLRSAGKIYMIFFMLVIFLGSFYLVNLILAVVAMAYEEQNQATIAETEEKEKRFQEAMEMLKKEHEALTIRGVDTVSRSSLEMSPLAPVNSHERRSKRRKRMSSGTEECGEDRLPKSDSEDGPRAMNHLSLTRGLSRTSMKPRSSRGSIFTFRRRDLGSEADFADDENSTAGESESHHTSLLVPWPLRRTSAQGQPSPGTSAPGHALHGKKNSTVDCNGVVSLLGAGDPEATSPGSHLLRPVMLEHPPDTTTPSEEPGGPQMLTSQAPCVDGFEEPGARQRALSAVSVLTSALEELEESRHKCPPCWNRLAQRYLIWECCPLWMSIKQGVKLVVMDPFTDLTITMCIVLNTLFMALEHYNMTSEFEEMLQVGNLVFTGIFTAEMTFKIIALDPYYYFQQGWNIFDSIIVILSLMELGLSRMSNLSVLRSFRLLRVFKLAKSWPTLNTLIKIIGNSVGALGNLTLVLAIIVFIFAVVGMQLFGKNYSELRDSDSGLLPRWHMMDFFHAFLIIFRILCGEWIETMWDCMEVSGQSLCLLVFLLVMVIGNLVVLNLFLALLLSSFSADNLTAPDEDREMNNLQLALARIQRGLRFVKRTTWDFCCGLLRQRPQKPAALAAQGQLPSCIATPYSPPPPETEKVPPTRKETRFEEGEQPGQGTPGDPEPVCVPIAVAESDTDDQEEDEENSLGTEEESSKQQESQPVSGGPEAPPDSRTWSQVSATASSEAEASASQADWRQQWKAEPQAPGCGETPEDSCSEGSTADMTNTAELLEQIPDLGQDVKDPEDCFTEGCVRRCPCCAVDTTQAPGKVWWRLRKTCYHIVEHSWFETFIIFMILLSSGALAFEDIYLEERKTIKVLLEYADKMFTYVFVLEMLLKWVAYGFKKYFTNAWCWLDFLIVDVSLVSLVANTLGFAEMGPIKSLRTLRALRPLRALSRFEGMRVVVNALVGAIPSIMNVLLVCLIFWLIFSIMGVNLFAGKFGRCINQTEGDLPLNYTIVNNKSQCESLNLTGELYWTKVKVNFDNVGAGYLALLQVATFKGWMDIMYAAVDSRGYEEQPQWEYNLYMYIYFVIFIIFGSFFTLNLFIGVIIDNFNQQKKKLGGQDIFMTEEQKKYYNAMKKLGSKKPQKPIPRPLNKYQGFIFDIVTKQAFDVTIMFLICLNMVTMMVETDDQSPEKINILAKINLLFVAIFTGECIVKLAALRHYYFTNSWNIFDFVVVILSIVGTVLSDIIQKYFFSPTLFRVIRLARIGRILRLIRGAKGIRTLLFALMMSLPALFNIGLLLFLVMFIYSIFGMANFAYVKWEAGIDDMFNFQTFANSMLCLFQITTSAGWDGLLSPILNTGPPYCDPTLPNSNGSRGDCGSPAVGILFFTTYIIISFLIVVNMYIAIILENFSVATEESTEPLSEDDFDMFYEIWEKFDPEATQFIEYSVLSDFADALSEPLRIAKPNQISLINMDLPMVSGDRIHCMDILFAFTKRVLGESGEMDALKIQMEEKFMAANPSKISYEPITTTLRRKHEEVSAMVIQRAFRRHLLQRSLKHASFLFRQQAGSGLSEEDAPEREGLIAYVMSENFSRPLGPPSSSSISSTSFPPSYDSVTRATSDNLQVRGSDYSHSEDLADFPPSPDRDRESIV
Structure (SMILES),IC50 (hNav1.5) [nM],IC50 (hNav1.7) [nM]
"CC[C@H](C)[C@@H]1NC(=O)[C@@H]2CSSC[C@@H]3NC(=O)[C@H](C(C)C)NC(=O)[C@H](CC(C)C)NC(=O)[C@H](CC(N)=O)NC(=O)[C@@H]4CCCN4C(=O)[C@H](CCCNC(=N)N)NC(=O)[C@H](CSSC[C@H](NC(=O)[C@@H](N)CC(=O)O)C(=O)N[C@@H](CC(C)C)C(=O)NCC(=O)N[C@@H](C)C(=O)N[C@@H](Cc4ccccc4)C(=O)N[C@@H](CCCNC(=N)N)C(=O)N[C@@H](CCCCN)C(=O)N2)NC(=O)[C@H](CSSC[C@@H](C(=O)N[C@@H](CCCCN)C(=O)N[C@@H](Cc2ccc(O)cc2)C(=O)N[C@H](C(=O)N[C@@H](Cc2ccccc2)C(N)=O)C(C)C)NC(=O)[C@H](Cc2c[nH]c4ccccc24)NC(=O)[C@H](CCCCN)NC(=O)[C@H](Cc2c[nH]cn2)NC(=O)[C@H]([C@@H](C)O)NC(=O)[C@H](C)NC(=O)[C@H](CO)NC3=O)NC(=O)[C@H](CCCCN)NC(=O)[C@H](CC(=O)O)NC(=O)[C@H](CC(N)=O)NC(=O)[C@H](CC(=O)O)NC(=O)[C@@H]2CCCN2C1=O [[Ala5,25;Phe6]GpTx-1(1-34)] (H-DCLGAFRKCIPDNDKCCRPNLVCSATHKWCKYVF-NH2; disulfide 2-17, 9-23, 16-30)",> 10000,86
CC[C@H](C)[C@@H]1NC(=O)[C@@H]2CSSC[C@@H]3NC(=O)[C@H](C(C)C)NC(=O)[C@H](CC(C)C)NC(=O)[C@H](CC(N)=O)NC(=O)[C@@H]4CCCN4C(=O)[C@H](CCCNC(=N)N)NC(=O)[C@H](CSSC[C@H](NC(=O)[C@@H](N)CC(=O)O)C(=O)N[C@@H](CC(C)C)C(=O)NCC(=O)N[C@@H](C)C(=O)N[C@@H](Cc4cn(C)c5ccccc45)C(=O)N[C@@H](CCCNC(=N)N)C(=O)N[C@@H](CCCCN)C(=O)N2)NC(=O)[C@H](CSSC[C@@H](C(=O)N[C@@H](CCCCN)C(=O)N[C@@H](Cc2ccc(O)cc2)C(=O)N[C@H](C(=O)N[C@@H](Cc2ccccc2)C(N)=O)C(C)C)NC(=O)[C@H](Cc2c[nH]c4ccccc24)NC(=O)[C@H](CCCCN)NC(=O)[C@H](Cc2c[nH]cn2)NC(=O)[C@H]([C@@H](C)O)NC(=O)[C@H](CCCNC(=N)N)NC(=O)[C@H](CO)NC3=O)NC(=O)[C@H](CCCCN)NC(=O)[C@H](CC(=O)O)NC(=O)[C@H](CC(N)=O)NC(=O)[C@H](CC(=O)O)NC(=O)[C@@H]2CCCN2C1=O [[Ala5;1′NMeW6]GpTx-1(1-34)],> 10000,51
"CC[C@H](C)[C@@H]1NC(=O)[C@@H]2CSSC[C@@H]3NC(=O)[C@H](C(C)C)NC(=O)[C@H](CC(C)C)NC(=O)[C@H](CC(N)=O)NC(=O)[C@@H]4CCCN4C(=O)[C@H](CCCNC(=N)N)NC(=O)[C@H](CSSC[C@H](NC(=O)[C@@H](N)CC(=O)O)C(=O)N[C@@H](CC(C)C)C(=O)NCC(=O)N[C@@H](C)C(=O)N[C@@H](CCSC)C(=O)N[C@@H](CCCNC(=N)N)C(=O)N[C@@H](CCCCN)C(=O)N2)NC(=O)[C@H](CSSC[C@@H](C(=O)N[C@@H](CCCCN)C(=O)N[C@@H](Cc2cn(C)c4ccccc24)C(=O)N[C@H](C(=O)N[C@@H](Cc2ccccc2)C(N)=O)C(C)C)NC(=O)[C@H](Cc2c[nH]c4ccccc24)NC(=O)[C@H](CCCCN)NC(=O)[C@H](Cc2c[nH]cn2)NC(=O)[C@H]([C@@H](C)O)NC(=O)[C@H](CCCNC(=N)N)NC(=O)[C@H](CO)NC3=O)NC(=O)[C@H](CCCCN)NC(=O)[C@H](CC(=O)O)NC(=O)[C@H](CC(N)=O)NC(=O)[C@H](CC(=O)O)NC(=O)[C@@H]2CCCN2C1=O [[Ala5;1′NMeW32]GpTx-1(1-34)] (H-DCLGAMRKCIPDNDKCCRPNLVCSRTHKWCK[Trp(1-Me)]VF-NH2; disulfide 2-17, 9-23, 16-30)",> 10000,18

# Source: patent publication US9340590B2 (priority 2011, dated 2016)
